The nature of data set [1]: LogD7.4 by shake-flask method (n-octanol/PBS). It is filed as physicochemical. To be noted: ^203Pb-labeled compound; n-octanol/PBS pH 7.4; n = 3. The protocol:
Distribution coefficients (LogD7.4) were determined by the shake-flask method. A sample containing the ^203Pb-labeled compound (~1 MBq) was added to a vial containing PBS (600 µL, pH 7.4) and n-octanol (600 µL). The vial was vortexed vigorously and then centrifuged at 10,000 rpm for 10 min for phase separation. Samples (100 µL) of the n-octanol and aqueous phases were taken and measured by a gamma counter. The LogD7.4 value was calculated by using the equation: LogD7.4 = log [(counts in the n-octanol phase)/(counts in the aqueous phase)]. Measurements were performed in triplicate.

A short description of data set [2]: In vitro stability in PBS. It is filed as physicochemical. The following applies: 37 °C, n = 1. On the procedure: The ^203Pb-labeled compounds (~ 2 MBq) or the ^212Pb-labeled compounds (~ 70 kBq) were incubated in 300 µL of phosphate buffered saline (PBS; 0.1 M, pH 7.4) or mouse serum at 37 °C. The stability of the radiolabeled peptides was monitored at 1, 4, and 24 h post-incubation. The samples in PBS were directly analyzed by radio-HPLC without any pretreatment. However, samples of mouse serum were mixed with an equal volume of acetonitrile to precipitate the proteins. The solution was centrifuged twice for 5 min at 13,000 rpm, and the supernatant was analyzed by radio-HPLC using Method 1 for lead-203 and Method 2 for lead-212.

Data set [3] is described as follows: Biodistribution study with lead-212. It is filed as in vivo, mouse. To be noted: mouse, intravenous; for tissue uptake at 1 h: 1 h p.i.; for tissue uptake at 4 h: 4 h p.i. On the procedure: (§1) Six-week-old male Balb/c nu/nu-specific and opportunistic pathogen-tree (SOPF) mice (Janvier Labs, Le Genest-Saint-Isle, France) were housed in individually ventilated cages, with four mice per cage. Upon arrival, the mice were acclimated for 1 week with access to food and water ad libitum. Mice were subcutaneously inoculated on the right shoulder with NCI-H69 cells (5 × 10^6 cells suspended in 100 μL of 1/3 Matrigel (Corning Inc.; Corning, NY, USA) and 2/3 Hank’s balanced salt solution (Gibco; Paisley, UK). NCI-H69 xenografts were allowed to grow for 3 weeks. Tumor sizes were 391 ± 173 mm^3 at the start of the studies.
(§2) Biodistribution studies were performed to determine tumor and organ uptake of [^212Pb]Pb-DOTAM-TATE, [^212Pb]Pb-eSOMA-01, and [^212Pb]Pb-eSOMA-02. Animals (n = 4 for each time point) were injected intravenously (i.v.) with an average of 100 kBq/0.5 nmol. At 3 selected time points (1, 4, and 24 h) p.i., blood was collected via retro-orbital puncture under isoflurane/O2 anesthesia, after which the mice were sacrificed via cervical dislocation. The tumor and organs of interest (heart, lungs, liver, spleen, stomach, large intestine, small intestine, pancreas, kidneys, muscle, skin, and bone) were excised, washed in PBS, and blotted dry. To confirm receptor specificity of radioligand uptake, mice (n = 3) were co-injected with an excess (25 nmol) of the respective unlabeled peptide, and uptake in the organs of interest was determined at 24 h p.i. To determine the total injected radioactivity per animal, a calibration curve with lead-212 was established using the gamma counter. The percentage of injected dose per gram (% ID/g) was determined for each tissue sample and corrected for both the injected volume and the % ID present at the injection site (the tail).

The subject of data set [4] is H69-xenograft Balb/c nu/nu mice. As to the kind of experiment: Biodistribution study with lead-212. It is filed as in vivo, mouse. To be noted: 1 h p.i.; n = 4. On the procedure:
as §1, §2

The mark [5] stands for this setting: blood, 100 kBq, n = 4, read-out: Blood uptake.
Setting [6] is: intestines, 100 kBq, n = 4, read-out: Intestines uptake.
Where [7] appears, read: kidneys, 100 kBq, n = 4, read-out: Kidneys uptake.
Where [8] appears, read: liver, 100 kBq, n = 4, read-out: Liver uptake.
[9] abbreviates: lungs, 100 kBq, n = 4, read-out: Lungs uptake.
The mark [10] stands for this setting: pancreas, 100 kBq, n = 4, read-out: Pancreas uptake.
The mark [11] stands for this setting: spleen, 100 kBq, n = 4, read-out: Spleen uptake.
Setting [12] is: stomach, 100 kBq, n = 4, read-out: Stomach uptake.
Setting [13] is: tumor, 100 kBq, n = 4, read-out: Tumor uptake.

Each structure is given as a SMILES string. Like-named read-outs stand apart in the source and are kept apart here.

For `C[C@@H](O)[C@H](NC(=O)[C@@H]1CSSC[C@H](NC(=O)[C@@H](Cc2ccccc2)NC(=S)Nc2ccc(CC3CN(CC(N)=O)CCN(CC(N)=O)CCN(CC(N)=O)CCN3CC(N)=O)cc2)C(=O)N[C@@H](Cc2ccc(O)cc2)C(=O)N[C@H](Cc2c[nH]c3ccccc23)C(=O)N[C@@H](CCCCN)C(=O)N[C@@H]([C@@H](C)O)C(=O)N1)C(=O)O` (stereo partly drawn) [[^203Pb]Pb-eSOMA-03, metal not drawn], the logD in data set [1] was -1.36 ± 0.06. Further, the “Stability in PBS, intact labeled ligand” value in data set [2] (^203Pb-labeled, 1 h) is 70%; in data set [2] (^203Pb-labeled, 4 h), 40%; in data set [2] (^203Pb-labeled, 24 h), 15%. For the same molecule, the remaining at 1 h in data set [2] (phosphate buffered saline, pH 7.4, ^203Pb-labeled, 1 h, read-out: Stability in PBS, intact labeled ligand) worked out at 70%. Moreover, the remaining at 24 h in data set [2] (phosphate buffered saline, pH 7.4, ^203Pb-labeled, 24 h, read-out: Stability in PBS, intact labeled ligand) came to 15%.

As to `C[C@@H](O)[C@H](NC(=O)[C@@H]1CSSC[C@H](NC(=O)[C@@H](Cc2ccccc2)NC(=O)CN2CCC(NC(=O)CN3CCN(CC(N)=O)CCN(CC(N)=O)CCN(CC(N)=O)CC3)CC2)C(=O)N[C@@H](Cc2ccc(O)cc2)C(=O)N[C@H](Cc2c[nH]c3ccccc23)C(=O)N[C@@H](CCCCN)C(=O)N[C@@H]([C@@H](C)O)C(=O)N1)C(=O)O` [[^212Pb]Pb-eSOMA-02, metal not drawn], the “Stability in PBS, intact labeled ligand” value is recorded as 97% in data set [2] (^212Pb-labeled, 1 h); 95% in data set [2] (^212Pb-labeled, 4 h); 95% in data set [2] (^212Pb-labeled, 24 h). For the same molecule, the tissue uptake at 1 h in data set [3] (setting [5]) worked out at 1.44 ± 0.24 %ID/g; in data set [3] (heart, 100 kBq, n = 4, read-out: Heart uptake) it was 0.54 ± 0.21 %ID/g; in data set [3] (setting [6]), 2.24 ± 1.05 %ID/g; in data set [3] (setting [7]), 81.1 ± 14.3 %ID/g; in data set [3] (setting [8]), 3.96 ± 0.37 %ID/g; in data set [3] (setting [9]) it was 3.49 ± 0.7 %ID/g. The tissue uptake at 1 h in data set [3] (setting [10]) is 6.41 ± 0.7 %ID/g; in data set [3] (setting [11]) it was 0.59 ± 0.06 %ID/g; in data set [3] (setting [12]) it was 3.74 ± 0.66 %ID/g; in data set [3] (setting [13]), 7.93 ± 2.14 %ID/g. Also, the tissue uptake at 4 h in data set [3] (setting [5]) amounted to 0.01 ± 0.02 %ID/g; in data set [3] (bone, 100 kBq, n = 4, read-out: Bones uptake), 0.03 ± 0.05 %ID/g; in data set [3] (setting [6]), 0.67 ± 0.21 %ID/g; in data set [3] (setting [7]), 50.5 ± 3.24 %ID/g; in data set [3] (setting [8]) it was 3.09 ± 0.7 %ID/g; in data set [3] (setting [9]) it was 0.99 ± 0.24 %ID/g. Further, the tissue uptake at 4 h stood at 1.25 ± 0.27 %ID/g in data set [3] (setting [10]); 0.25 ± 0.33 %ID/g in data set [3] (skin, 100 kBq, n = 4, read-out: Skin uptake); 0.39 ± 0.27 %ID/g in data set [3] (setting [11]); 1.17 ± 0.35 %ID/g in data set [3] (setting [12]); 7.45 ± 0.29 %ID/g in data set [3] (setting [13]). Moreover, the tissue uptake at 24 h was found to be 0.13 ± 0.09 %ID/g in data set [3] (intestines, 100 kBq, 24 h p.i., n = 4, read-out: Intestines uptake); 0.03 ± 0.03 %ID/g in data set [3] (intestines, 24 h block: co-injection of excess (25 nmol) unlabeled peptide, read-out: Intestines uptake); 28.2 ± 9.41 %ID/g in data set [3] (kidneys, 100 kBq, 24 h p.i., n = 4, read-out: Kidneys uptake); 37.9 ± 9.17 %ID/g in data set [3] (kidneys, 24 h block: co-injection of excess (25 nmol) unlabeled peptide, read-out: Kidneys uptake); 1.44 ± 0.94 %ID/g in data set [3] (liver, 100 kBq, 24 h p.i., n = 4, read-out: Liver uptake); 0.83 ± 0.87 %ID/g in data set [3] (liver, 24 h block: co-injection of excess (25 nmol) unlabeled peptide, read-out: Liver uptake). The tissue uptake at 24 h is 0.2 ± 0.21 %ID/g in data set [3] (lungs, 100 kBq, 24 h p.i., n = 4, read-out: Lungs uptake); 0.41 ± 0.37 %ID/g in data set [3] (pancreas, 100 kBq, 24 h p.i., n = 4, read-out: Pancreas uptake); 0.36 ± 0.27 %ID/g in data set [3] (stomach, 100 kBq, 24 h p.i., n = 4, read-out: Stomach uptake); 0.14 ± 0.28 %ID/g in data set [3] (stomach, 24 h block: co-injection of excess (25 nmol) unlabeled peptide, read-out: Stomach uptake); 1.02 ± 0.09 %ID/g in data set [3] (tumor, 100 kBq, 24 h p.i., n = 4, read-out: Tumor uptake). Moreover, in data set [4], the Stomach uptake came out at 3.7 % ID/g.

The term logD denotes lipophilicity at a set pH, counting ionised and neutral species.

The values are drawn from paper PMC10384862, “[^212Pb]Pb-eSOMA-01: A Promising Radioligand for Targeted Alpha Therapy of Neuroendocrine Tumors” (Pharmaceuticals, 2023).
